US7776863B2, “Methods of treating HIV infection” (priority 2004, dated 2010)
pEC50: −log10 of the molar value.

Key:
HIV-1 LAI = assay: microbe, parasite or virus in culture; details: for Combination Indices at % HIV Inhibition (Confidence Interval) 50% / Combination Indices at % HIV Inhibition (Confidence Interval) 75% / Combination Indices at % HIV Inhibition (Confidence Interval) 90% / Overall Result (combined anti-HIV effect): Compound 1 + named drug; for Combination Indices at % HIV Inhibition (Confidence Interval) 50% / Combination Indices at % HIV Inhibition (Confidence Interval) 75% / Combination Indices at % HIV Inhibition (Confidence Interval) 90%: 95% confidence interval in parentheses; for Overall Result (combined anti-HIV effect): all ratios, MT-2 cells, HIV-1 LAI
Method: (§1) Virus and cell lines. The T-cell lines, MT-2 and PM-1 were obtained through the AIDS Research and Reference Reagent Program, NIAID, and were contributed by Dr. D. Richman and Dr. R. Gallo, respectively. Both cell lines were cultured in RPMI 1640 medium supplemented with 10% fetal bovine serum, 2 mM L-glutamine and sub-cultured twice a week. The LAI strain of HIV-1 was obtained from the Fred Hutchinson Cancer Research Center, and the Bal strain was from NIH. Both virus stocks were amplified and titered in MT-2 cells (LAI) and PM-1 cells (Bal) using a virus infectivity assay.
(§2) Drug Susceptibility and Cytotoxicity Assays. For drug susceptibility assays, MT-2 cells were infected with HIV-1 LAI (or PM-1 cells with HIV-1 Bal) at an MOI of 0.005, and seeded into 96-well microtiter plates (0.1×10^6 cells/ml) containing serial dilutions of test compounds. […] Each drug ratio consisted of an array of 3-fold serial dilutions, and was performed in quadruplicate. The plates were incubated at 37° C./5% CO2. The MT-2 cells infected with HIV-1 LAI were incubated for 5 days. On day-five post-infection, 20 μl from each well was harvested and quantitated by a reverse transcriptase (RT) assay, or in samples involving non-nucleoside RT inhibitors, an MTS assay. The PM-1 cells infected with HIV-1 Bal and used for studying the combinations with CCR5 inhibitors were incubated for six days. On day-six post-infection, 20 μl from each well was harvested, 20- and 50-fold diluted and quantitated by p24 assay. Cytotoxicity assays were performed using uninfected cells, exposed to the same drug combinations, and incubated for six days. Cell viability was determined by an MTS assay. The CC50 values were calculated by using the exponential form of the median effect equation as mentioned below for calculation of EC50.
(§3) Analysis of Drug Combination Effects. For determination of CI values, drugs were diluted in a fixed ratio and multiple ratios were analyzed. The drug serial dilutions spanned a range of concentrations near the EC50 value of each compound, so that equivalent antiviral activities could be compared. Concentration-response curves were estimated for each individual drug and every combination using the median-effect equation. The equation was fit using a nonlinear regression routine (Proc Nlin) in PC SAS version 8.01 (SAS Institute Inc., SAS Version 8.01, Cary, N.C.: SAS Institute Inc., 1990).
(§4) In this equation, Fa stands for “fraction affected,” and represents the fraction of the viral load that has been inactivated. […] ED50 is drug concentration that is expected to reduce the amount of virus by 50%, and m is a parameter that reflects the slope of the concentration-response curve.
(§5) To assess antiviral effects of different drug combination treatments, combination indices (CIs) were calculated according to Chou and Rideout. The combination index was computed as CI=[D]1/[Dm]1+[D]2/[Dm]2
(§6) In this equation [Dm]1 and [Dm]2 are the concentrations of drugs that would individually produce a specific level of effect, while [D]1 and [D]2 are the concentrations of drugs in combination that would produce the same level of effect.
(§7) Theoretically, additivity is implied if the CI is equal to one, synergy if the CI is less than one, and antagonism if the CI is greater than one. […] At best, we can construct a range that contains the likely values for the CI, given the noise in the data. In this report, these ranges are reported in parentheses next to each point estimate of the CI. […] If the range fell entirely above 1.0, we would infer antagonistic behavior. If the range were to include 1.0, we would infer additivity.
(§8) In carrying out the combination experiments below, the EC50 for Compound 1 and each comparator compound was determined during the course of each study, and used in the subsequent data analysis.

uninfected cells = assay: Cytotoxicity assay of drug combinations, uninfected cells, MTS assay; format: cell-based; details: Compound 1 + other drug at the highest concentrations tested, 6 days
Method: as §2, with “Assays.” for “Assays. For drug susceptibility assays, MT-2 cells were infected with HIV-1 LAI (or PM-1 cells with HIV-1 Bal) at an MOI of 0.005, and seeded into 96-well microtiter plates (0.1×10^6 cells/ml) containing serial dilutions of test compounds.”, “The MT-2 cells infected with HIV-1 LAI were incubated for 5 days.” left out

HIV-1 Bal = assay: Drug susceptibility assay, PM-1 cells infected with HIV-1 Bal, combinations with CCR5 inhibitors (p24 assay); format: cell-based; details: for Combination Indices at % HIV Inhibition (Confidence Interval) 50% / Combination Indices at % HIV Inhibition (Confidence Interval) 75% / Combination Indices at % HIV Inhibition (Confidence Interval) 90%: 95% confidence interval in parentheses
Method: as §1, §2, §3, §4, §5, §6, §7, §8

[1] = EC50 ratio 1:1 (Compound 1:comparator)
[2] = EC50 ratio 1:2.5 (Compound 1:comparator)
[3] = EC50 ratio 2.5:1 (Compound 1:comparator)
[4] = Compound 1 + CCR5 inhibitor, EC50 ratio 1:1, PM-1 cells, HIV-1 Bal
[5] = Compound 1 + CCR5 inhibitor, EC50 ratio 1:2.5, PM-1 cells, HIV-1 Bal
[6] = Compound 1 + CCR5 inhibitor, EC50 ratio 2.5:1, PM-1 cells, HIV-1 Bal

Row | Compound | Combination Indices at % HIV Inhibition (Confidence Interval) 50% (HIV-1 LAI; [1]) | Combination Indices at % HIV Inhibition (Confidence Interval) 75% (HIV-1 LAI; [1]) | Combination Indices at % HIV Inhibition (Confidence Interval) 90% (HIV-1 LAI; [1]) | Combination Indices at % HIV Inhibition (Confidence Interval) 50% (HIV-1 LAI; [2]) | Combination Indices at % HIV Inhibition (Confidence Interval) 75% (HIV-1 LAI; [2]) | Combination Indices at % HIV Inhibition (Confidence Interval) 90% (HIV-1 LAI; [2]) | Combination Indices at % HIV Inhibition (Confidence Interval) 50% (HIV-1 LAI; [3]) | Combination Indices at % HIV Inhibition (Confidence Interval) 75% (HIV-1 LAI; [3]) | Combination Indices at % HIV Inhibition (Confidence Interval) 90% (HIV-1 LAI; [3]) | Overall Result (combined anti-HIV effect) (HIV-1 LAI) | also measured
1 | CON(Cc1ccc(F)cc1)C(=O)C=C(O)C(=O)O [Compound 2, 3-[(4-Fluorobenzyl)methoxycarbamoyl]-2-hydroxyacrylic acid] | 0.48 (0.39, 0.58) | 0.51 (0.37, 0.65) | 0.54 (0.31, 0.76) | 0.44 (0.36, 0.53) | 0.51 (0.37, 0.65) | 0.59 (0.34, 0.85) | 0.50 (0.36, 0.63) | 0.70 (0.44, 0.97) | 1.00 (0.41, 1.59) | moderate synergistic | Overall Result (combined anti-HIV effect) (HIV-1 LAI; listed as BMS-538203): Moderate-; pEC50 (HIV-1 LAI; Human immunodeficiency virus 1, MT2, 120 h): 7.10; Cytotoxicity of the drug combination (uninfected cells): No significant cytotoxicity
2 | CCO/N=C(\c1ccc(Br)cc1)C1CCN(C2(C)CCN(C(=O)c3c(C)cc[n+]([O-])c3C)CC2)CC1 [SchC] |  |  |  |  |  |  |  |  |  |  | Combination Indices at % HIV Inhibition (Confidence Interval) 50% (HIV-1 Bal; [4]): 0.19 (0.14, 0.25); Combination Indices at % HIV Inhibition (Confidence Interval) 75% (HIV-1 Bal; [4]): 0.46 (0.29, 0.63); Combination Indices at % HIV Inhibition (Confidence Interval) 90% (HIV-1 Bal; [4]): 1.12 (0.4, 1.83); Combination Indices at % HIV Inhibition (Confidence Interval) 50% (HIV-1 Bal; [5]): 0.50 (0.38, 0.61); Combination Indices at % HIV Inhibition (Confidence Interval) 75% (HIV-1 Bal; [5]): 0.92 (0.64, 1.21); Combination Indices at % HIV Inhibition (Confidence Interval) 90% (HIV-1 Bal; [5]): 1.74 (0.83, 2.65); Combination Indices at % HIV Inhibition (Confidence Interval) 50% (HIV-1 Bal; [6]): 0.08 (0.05, 0.11); Combination Indices at % HIV Inhibition (Confidence Interval) 75% (HIV-1 Bal; [6]): 0.21 (0.14, 0.28); Combination Indices at % HIV Inhibition (Confidence Interval) 90% (HIV-1 Bal; [6]): 0.54 (0.21, 0.88); Overall Result (combined anti-HIV effect) (HIV-1 Bal; Compound 1 + CCR5 inhibitor, all ratios, PM-1 cells, HIV-1 Bal): Additive-; pEC50 (HIV-1 Bal; single drug, PM-1 cells infected with HIV-1 Bal, 6 days, p24 assay): 9.05
3 | enfuvirtide | 0.47 (0.40, 0.54) | 0.53 (0.42, 0.65) | 0.60 (0.39, 0.81) | 0.48 (0.37, 0.60) | 0.60 (0.40, 0.80) | 0.75 (0.35, 1.15) | 0.35 (0.29, 0.40) | 0.47 (0.37, 0.57) | 0.63 (0.40, 0.86) | Synergistic | pEC50 (HIV-1 LAI; LAI): 9.00
